Results reported in patent publication US20190389882A1, “INHIBITORS OF BETA SECRETASE” (Janssen Pharmaceutica NV, priority 2017, published 2019).

Key:
β-secretase I (BACE1) = β-secretase I (BACE1) (Homo sapiens, UniProt P56817); experiment: Automated (CyclOps) biochemical assay BACE1
β-secretase II (BACE2) = molecular target: T1, β-secretase II (BACE2) (Homo sapiens, UniProt Q9Y5Z0); experiment: Automated (CyclOps) biochemical assay BACE2
T1 sequence (Q9Y5Z0 63-518): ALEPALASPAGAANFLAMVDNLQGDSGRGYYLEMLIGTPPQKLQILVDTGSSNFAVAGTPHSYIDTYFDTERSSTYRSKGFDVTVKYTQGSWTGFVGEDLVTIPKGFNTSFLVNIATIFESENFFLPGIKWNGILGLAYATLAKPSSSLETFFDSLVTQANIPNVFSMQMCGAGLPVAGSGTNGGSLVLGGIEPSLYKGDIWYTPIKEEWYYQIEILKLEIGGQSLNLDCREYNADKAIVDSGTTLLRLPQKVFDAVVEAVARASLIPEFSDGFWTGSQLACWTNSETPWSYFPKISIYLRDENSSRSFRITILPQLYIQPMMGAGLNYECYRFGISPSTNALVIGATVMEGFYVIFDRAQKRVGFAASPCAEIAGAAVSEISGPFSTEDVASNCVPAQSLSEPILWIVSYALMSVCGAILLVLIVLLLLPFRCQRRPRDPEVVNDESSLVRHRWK

Chain of β-secretase I (BACE1) (P56817 46-501): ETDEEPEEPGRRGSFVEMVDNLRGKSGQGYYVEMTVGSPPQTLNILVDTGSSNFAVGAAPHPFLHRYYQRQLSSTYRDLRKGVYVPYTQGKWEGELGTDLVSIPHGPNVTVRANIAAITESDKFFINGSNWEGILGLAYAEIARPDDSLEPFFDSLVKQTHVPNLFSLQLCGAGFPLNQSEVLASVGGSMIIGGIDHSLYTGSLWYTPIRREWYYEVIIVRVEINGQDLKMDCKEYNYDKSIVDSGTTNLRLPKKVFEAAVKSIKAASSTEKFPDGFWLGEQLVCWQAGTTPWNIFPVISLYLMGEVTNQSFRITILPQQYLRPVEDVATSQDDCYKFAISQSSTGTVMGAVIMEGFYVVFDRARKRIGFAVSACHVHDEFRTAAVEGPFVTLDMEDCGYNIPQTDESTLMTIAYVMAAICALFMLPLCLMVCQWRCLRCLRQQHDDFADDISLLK

IC50 (β-secretase I (BACE1)) [µM] | IC50 (β-secretase II (BACE2)) [µM] | SMILES
0.324 | 0.871 | COc1ncc(C(=O)N2CCN(c3nccs3)CC2)c2c1C[C@]1(c3ccc(F)cc3F)N=C(N)SC[C@@H]1C2 [Compound 7]
1 | 3.55 | COc1ncc(C(=O)N2Cc3cccnc3C2)c2c1C[C@]1(c3ccc(F)cc3F)N=C(N)SC[C@@H]1C2 [Compound 8]
0.158 | 2.37 | COc1ncc(C(=O)N2CCN(c3ccncc3)CC2)c2c1C[C@]1(c3ccc(F)cc3F)N=C(N)SC[C@@H]1C2 [Compound 17]
0.501 | 0.832 | COc1ncc(C(=O)N2CCS(=O)(=O)CC2)c2c1C[C@]1(c3ccc(F)cc3F)N=C(N)SC[C@@H]1C2 [Compound 12]
0.0148 | 0.0881 | COc1cccc(C2CCN(C(=O)c3cnc(OC)c4c3C[C@H]3CSC(N)=N[C@@]3(c3ccc(F)cc3F)C4)C2)c1 (single isomer, unassigned) [Compound 25]
0.0191 | 0.115 | COc1ncc(CNC(=O)c2ccncc2F)c2c1C[C@]1(c3ccc(F)cc3F)N=C(N)SC[C@@H]1C2 [Compound 38]
0.0257 | 0.209 | COc1ncccc1C(=O)NCc1cnc(OC)c2c1C[C@H]1CSC(N)=N[C@@]1(c1ccc(F)cc1F)C2 [Compound 47]
0.0157 | 0.507 | COc1ncc(C(=O)N2CCC(c3ccncc3)C2)c2c1C[C@]1(c3ccc(F)cc3F)N=C(N)SC[C@@H]1C2 (stereo partly shown) [Compound 26]
0.0363 | 0.407 | CCOc1ncccc1C(=O)NCc1cnc(OC)c2c1C[C@H]1CSC(N)=N[C@@]1(c1ccc(F)cc1F)C2 [Compound 46]
0.182 | 0.389 | COc1cccc(C(=O)NCc2cnc(OC)c3c2C[C@H]2CSC(N)=N[C@@]2(c2ccc(F)cc2F)C3)n1 [Compound 39]
0.0562 | 0.282 | COc1ncc(C(=O)N2CCC(C#N)C2)c2c1C[C@]1(c3ccc(F)cc3F)N=C(N)SC[C@@H]1C2 (stereo partly shown) [Compound 6]
0.115 | 0.309 | COc1ncc(CNC(=O)c2ccncn2)c2c1C[C@]1(c3ccc(F)cc3F)N=C(N)SC[C@@H]1C2 [Compound 50]
0.0209 | 0.0977 | COc1ncc(CNC(=O)c2cccnc2F)c2c1C[C@]1(c3ccc(F)cc3F)N=C(N)SC[C@@H]1C2 [Compound 43]
0.0692 | 0.309 | COc1ncc(C(=O)N2CCOC(c3cccc(C)c3)C2)c2c1C[C@]1(c3ccc(F)cc3F)N=C(N)SC[C@@H]1C2 (stereo partly shown) [Compound 13]
0.0347 | 0.178 | COc1cc(OC)nc(C(=O)NCc2cnc(OC)c3c2C[C@H]2CSC(N)=N[C@@]2(c2ccc(F)cc2F)C3)n1 [Compound 49]
0.0617 | 0.324 | COc1ncc(C(=O)N2CCCC(OC)C2)c2c1C[C@]1(c3ccc(F)cc3F)N=C(N)SC[C@@H]1C2 (stereo partly shown) [Compound 23]
0.155 | 0.776 | COCC1CCN(C(=O)c2cnc(OC)c3c2C[C@H]2CSC(N)=N[C@@]2(c2ccc(F)cc2F)C3)CC1 [Compound 11]
0.112 | 0.186 | COc1ncc(CNC(=O)c2cccnc2C)c2c1C[C@]1(c3ccc(F)cc3F)N=C(N)SC[C@@H]1C2 [Compound 40]
0.138 | 0.724 | COc1ncc(CNC(=O)c2ccncc2C(F)(F)F)c2c1C[C@]1(c3ccc(F)cc3F)N=C(N)SC[C@@H]1C2 [Compound 35]
0.00851 | 0.0295 | COc1ncc(CNC(=O)c2cccnc2)c2c1C[C@]1(c3ccc(F)cc3F)N=C(N)SC[C@@H]1C2 [Compound 45]
0.49 | 1.45 | COc1ncc(C(=O)N2CCN(C(=O)C3CC3)CC2)c2c1C[C@]1(c3ccc(F)cc3F)N=C(N)SC[C@@H]1C2 [Compound 10]
0.0794 | 0.513 | COc1cc(C(=O)NCc2cnc(OC)c3c2C[C@H]2CSC(N)=N[C@@]2(c2ccc(F)cc2F)C3)c(OC)nn1 [Compound 41]
0.363 | 2.14 | COc1ncc(C(=O)N2CC(C)OC(C)C2)c2c1C[C@]1(c3ccc(F)cc3F)N=C(N)SC[C@@H]1C2 (stereo partly shown) [Compound 9]
